{"source": "patent US11541029B2", "about": "“High penetration compositions and their applications” (Techfields Pharma Co., Ltd., priority 2008, dated 2023)", "test_system": "SLAC/MRL/LPR mice", "assay": "Lupus in MRL/LPR mice treated from 8 weeks old, 30 mg/kg (10% aq.) on back skin twice per day", "format": "in vivo", "procedure": ". Progression of lupus was monitored once a week by measurement of hematuria, body weight and survival rate. The experiments were carried out in two groups of mice. One group of mice were 8 weeks old and had not shown SLE characteristics (Table 26a). The other group of mice were 16 weeks old, and had shown SLE characteristics (Table 26b)."}
{"molecule": "CCN(CC)CCOC(=O)c1ccccc1OC(C)=O.Cl", "note": "[P-1, diethylaminoethyl acetylsalicylate.HCl salt]", "values": [{"measurement": "Body Weight", "setting": "week 8", "value": "30.5 ± 2.6", "unit": "g"}, {"measurement": "Hematuria (0-4)", "setting": "week 8", "value": 0}, {"measurement": "Survival Rate", "setting": "week 8", "value": "10/10"}, {"measurement": "Body Weight", "setting": "week 9", "value": "33.5 ± 2.1", "unit": "g"}, {"measurement": "Hematuria (0-4)", "setting": "week 9", "value": 0}, {"measurement": "Survival Rate", "setting": "week 9", "value": "10/10"}, {"measurement": "Body Weight", "setting": "week 10", "value": "36.2 ± 2.7", "unit": "g"}, {"measurement": "Hematuria (0-4)", "setting": "week 10", "value": 0}, {"measurement": "Survival Rate", "setting": "week 10", "value": "10/10"}, {"measurement": "Body Weight", "setting": "week 11", "value": "39.9 ± 2.1", "unit": "g"}, {"measurement": "Hematuria (0-4)", "setting": "week 11", "value": 0}, {"measurement": "Survival Rate", "setting": "week 11", "value": "10/10"}, {"measurement": "Body Weight", "setting": "week 12", "value": "42.7 ± 2.3", "unit": "g"}, {"measurement": "Hematuria (0-4)", "setting": "week 12", "value": 0}, {"measurement": "Survival Rate", "setting": "week 12", "value": "10/10"}, {"measurement": "Body Weight", "setting": "week 13", "value": "44.7 ± 2.4", "unit": "g"}, {"measurement": "Hematuria (0-4)", "setting": "week 13", "value": 0}, {"measurement": "Survival Rate", "setting": "week 13", "value": "10/10"}, {"measurement": "Body Weight", "setting": "week 14", "value": "47.1 ± 1.8", "unit": "g"}, {"measurement": "Hematuria (0-4)", "setting": "week 14", "value": 0}, {"measurement": "Survival Rate", "setting": "week 14", "value": "10/10"}, {"measurement": "Body Weight", "setting": "week 15", "value": "48.9 ± 2.6", "unit": "g"}, {"measurement": "Hematuria (0-4)", "setting": "week 15", "value": 0}, {"measurement": "Survival Rate", "setting": "week 15", "value": "10/10"}, {"measurement": "Body Weight", "setting": "week 16", "value": "49.6 ± 2.1", "unit": "g"}, {"measurement": "Hematuria (0-4)", "setting": "week 16", "value": 0}, {"measurement": "Survival Rate", "setting": "week 16", "value": "10/10"}, {"measurement": "Body Weight", "setting": "week 17", "value": "50.2 ± 2.5", "unit": "g"}, {"measurement": "Hematuria (0-4)", "setting": "week 17", "value": 0}, {"measurement": "Survival Rate", "setting": "week 17", "value": "10/10"}, {"measurement": "Body Weight", "setting": "week 18", "value": "50.6 ± 2.4", "unit": "g"}, {"measurement": "Hematuria (0-4)", "setting": "week 18", "value": 0}, {"measurement": "Survival Rate", "setting": "week 18", "value": "10/10"}, {"measurement": "Body Weight", "setting": "week 19", "value": "50.9 ± 2.3", "unit": "g"}, {"measurement": "Hematuria (0-4)", "setting": "week 19", "value": 0}, {"measurement": "Survival Rate", "setting": "week 19", "value": "10/10"}, {"measurement": "Body Weight", "setting": "week 20", "value": "51.1 ± 2.0", "unit": "g"}, {"measurement": "Hematuria (0-4)", "setting": "week 20", "value": 0}, {"measurement": "Survival Rate", "setting": "week 20", "value": "10/10"}, {"measurement": "Body Weight", "setting": "week 21", "value": "50.9 ± 2.3", "unit": "g"}, {"measurement": "Hematuria (0-4)", "setting": "week 21", "value": 0}, {"measurement": "Survival Rate", "setting": "week 21", "value": "10/10"}, {"measurement": "Body Weight", "setting": "week 22", "value": "50.4 ± 2.2", "unit": "g"}, {"measurement": "Hematuria (0-4)", "setting": "week 22", "value": 0}, {"measurement": "Survival Rate", "setting": "week 22", "value": "10/10"}, {"measurement": "Body Weight", "setting": "week 23", "value": "50.9 ± 2.1", "unit": "g"}, {"measurement": "Hematuria (0-4)", "setting": "week 23", "value": 0}, {"measurement": "Survival Rate", "setting": "week 23", "value": "10/10"}, {"measurement": "Body Weight", "setting": "week 24", "value": "51.2 ± 2.5", "unit": "g"}, {"measurement": "Hematuria (0-4)", "setting": "week 24", "value": 0}, {"measurement": "Survival Rate", "setting": "week 24", "value": "10/10"}, {"measurement": "Body Weight", "setting": "week 25", "value": "50.8 ± 2.2", "unit": "g"}, {"measurement": "Hematuria (0-4)", "setting": "week 25", "value": 0}, {"measurement": "Survival Rate", "setting": "week 25", "value": "10/10"}, {"measurement": "Body Weight", "setting": "week 26", "value": "50.7 ± 2.6", "unit": "g"}, {"measurement": "Hematuria (0-4)", "setting": "week 26", "value": 0}, {"measurement": "Survival Rate", "setting": "week 26", "value": "10/10"}, {"measurement": "Body Weight", "setting": "week 27", "value": "50.3 ± 2.1", "unit": "g"}, {"measurement": "Hematuria (0-4)", "setting": "week 27", "value": 0}, {"measurement": "Survival Rate", "setting": "week 27", "value": "10/10"}, {"measurement": "Body Weight", "setting": "week 28", "value": "50.6 ± 2.0", "unit": "g"}, {"measurement": "Hematuria (0-4)", "setting": "week 28", "value": 0}, {"measurement": "Survival Rate", "setting": "week 28", "value": "10/10"}, {"measurement": "Body Weight", "setting": "week 29", "value": "50.1 ± 2.0", "unit": "g"}, {"measurement": "Hematuria (0-4)", "setting": "week 29", "value": 0}, {"measurement": "Survival Rate", "setting": "week 29", "value": "10/10"}, {"measurement": "Body Weight", "setting": "week 30", "value": "49.8 ± 2.1", "unit": "g"}, {"measurement": "Hematuria (0-4)", "setting": "week 30", "value": 0}, {"measurement": "Survival Rate", "setting": "week 30", "value": "10/10"}, {"measurement": "Body Weight", "setting": "week 31", "value": "50.4 ± 1.9", "unit": "g"}, {"measurement": "Hematuria (0-4)", "setting": "week 31", "value": 0}, {"measurement": "Survival Rate", "setting": "week 31", "value": "10/10"}, {"measurement": "Body Weight", "setting": "week 32", "value": "50.8 ± 2.0", "unit": "g"}, {"measurement": "Hematuria (0-4)", "setting": "week 32", "value": 0}, {"measurement": "Survival Rate", "setting": "week 32", "value": "10/10"}, {"measurement": "Body Weight", "setting": "week 33", "value": "50.6 ± 2.1", "unit": "g"}, {"measurement": "Hematuria (0-4)", "setting": "week 33", "value": 0}, {"measurement": "Survival Rate", "setting": "week 33", "value": "10/10"}, {"measurement": "Body Weight", "setting": "week 34", "value": "50.8 ± 2.3", "unit": "g"}, {"measurement": "Hematuria (0-4)", "setting": "week 34", "value": 0}, {"measurement": "Survival Rate", "setting": "week 34", "value": "10/10"}, {"measurement": "Body Weight", "setting": "week 35", "value": "50.3 ± 2.4", "unit": "g"}, {"measurement": "Hematuria (0-4)", "setting": "week 35", "value": 0}, {"measurement": "Survival Rate", "setting": "week 35", "value": "10/10"}, {"measurement": "Body Weight", "setting": "week 36", "value": "50.7 ± 2.3", "unit": "g"}, {"measurement": "Hematuria (0-4)", "setting": "week 36", "value": 0}, {"measurement": "Survival Rate", "setting": "week 36", "value": "10/10"}, {"measurement": "Body Weight", "setting": "week 37", "value": "50.9 ± 2.0", "unit": "g"}, {"measurement": "Hematuria (0-4)", "setting": "week 37", "value": 0}, {"measurement": "Survival Rate", "setting": "week 37", "value": "10/10"}, {"measurement": "Body Weight", "setting": "week 38", "value": "51.1 ± 2.6", "unit": "g"}, {"measurement": "Hematuria (0-4)", "setting": "week 38", "value": 0}, {"measurement": "Survival Rate", "setting": "week 38", "value": "10/10"}, {"measurement": "Body Weight", "setting": "week 39", "value": "50.6 ± 2.2", "unit": "g"}, {"measurement": "Hematuria (0-4)", "setting": "week 39", "value": 0}, {"measurement": "Survival Rate", "setting": "week 39", "value": "10/10"}, {"measurement": "Body Weight", "setting": "week 40", "value": "50.7 ± 2.0", "unit": "g"}, {"measurement": "Hematuria (0-4)", "setting": "week 40", "value": 0}, {"measurement": "Survival Rate", "setting": "week 40", "value": "10/10"}, {"measurement": "Body Weight", "setting": "week 41", "value": "51.2 ± 2.1", "unit": "g"}, {"measurement": "Hematuria (0-4)", "setting": "week 41", "value": 0}, {"measurement": "Survival Rate", "setting": "week 41", "value": "10/10"}, {"measurement": "Body Weight", "setting": "week 42", "value": "51.1 ± 2.6", "unit": "g"}, {"measurement": "Hematuria (0-4)", "setting": "week 42", "value": 0}, {"measurement": "Survival Rate", "setting": "week 42", "value": "10/10"}, {"measurement": "Body Weight", "setting": "week 43", "value": "50.7 ± 2.2", "unit": "g"}, {"measurement": "Hematuria (0-4)", "setting": "week 43", "value": 0}, {"measurement": "Survival Rate", "setting": "week 43", "value": "10/10"}, {"measurement": "Body Weight", "setting": "week 44", "value": "50.3 ± 2.6", "unit": "g"}, {"measurement": "Hematuria (0-4)", "setting": "week 44", "value": 0}, {"measurement": "Survival Rate", "setting": "week 44", "value": "10/10"}, {"measurement": "Body Weight", "setting": "week 45", "value": "50.7 ± 2.0", "unit": "g"}, {"measurement": "Hematuria (0-4)", "setting": "week 45", "value": 0}, {"measurement": "Survival Rate", "setting": "week 45", "value": "10/10"}, {"measurement": "Body Weight", "setting": "week 46", "value": "50.6 ± 2.3", "unit": "g"}, {"measurement": "Hematuria (0-4)", "setting": "week 46", "value": 0}, {"measurement": "Survival Rate", "setting": "week 46", "value": "10/10"}, {"measurement": "Body Weight", "setting": "week 47", "value": "50.1 ± 2.0", "unit": "g"}, {"measurement": "Hematuria (0-4)", "setting": "week 47", "value": 0}, {"measurement": "Survival Rate", "setting": "week 47", "value": "10/10"}, {"measurement": "Body Weight", "setting": "week 48", "value": "50.3 ± 2.5", "unit": "g"}, {"measurement": "Hematuria (0-4)", "setting": "week 48", "value": 0}, {"measurement": "Survival Rate", "setting": "week 48", "value": "10/10"}, {"measurement": "Body Weight", "setting": "week 49", "value": "50.7 ± 2.4", "unit": "g"}, {"measurement": "Hematuria (0-4)", "setting": "week 49", "value": 0}, {"measurement": "Survival Rate", "setting": "week 49", "value": "10/10"}, {"measurement": "Body Weight", "setting": "week 50", "value": "51.2 ± 2.1", "unit": "g"}, {"measurement": "Hematuria (0-4)", "setting": "week 50", "value": 0}, {"measurement": "Survival Rate", "setting": "week 50", "value": "10/10"}]}
